Patent US20210047291A1, “PESTICIDALLY ACTIVE HETEROCYCLIC DERIVATIVES WITH SULFUR CONTAINING SUBSTITUENTS” (SYNGENTA PARTICIPATIONS AG, priority 2018, published 2021)
Read-outs that look alike come from different tables or passages of the source.

Tests used:
Type in all cases: in vivo
[1] = system: Myzus persicae (Green peach aphid); test: Example B5: Myzus persicae feeding/contact activity, sunflower leaf discs; conditions: foliar; for mortality at 200 ppm: 144 h
Method: Sunflower leaf discs were placed onto agar in a 24-well microtiter plate and sprayed with aqueous test solutions prepared from 10,000 ppm DMSO stock solutions. After drying, the leaf discs were infested with an aphid population of mixed ages. The samples were assessed for mortality 6 days after infestation.

[2] = system: Euschistus heros (Neotropical Brown Stink Bug); test: Example B3: Euschistus heros, soybean leaves, N2 nymphs; conditions: for percent effect (mortality or growth inhibition) at 200 ppm: 120 h, read-out: effect in at least one of the two categories (mortality or growth inhibition)
Method: Soybean leaves on agar in 24-well microtiter plates were sprayed with aqueous test solutions prepared from 10,000 ppm DMSO stock solutions. After drying the leaves were infested with N2 nymphs. The samples were assessed for mortality and growth inhibition in comparison to untreated samples 5 days after infestation.

[3] = system: Myzus persicae (Green peach aphid); test: Example B6: Myzus persicae systemic activity, pea seedlings; conditions: for mortality at 24 ppm: 144 h
Method: Roots of pea seedlings infested with an aphid population of mixed ages were placed directly into aqueous test solutions prepared from 10,000 DMSO stock solutions. The samples were assessed for mortality 6 days after placing seedlings into test solutions.

[4] = system: Diabrotica Balteata (Corn Root Worm); test: Example B2: Diabrotica balteata, maize sprouts, L2 larvae; conditions: Diabrotica balteata, 96 h, application rate of 200 ppm; L2 larvae; 4 days after infestation; read-out: effect in at least one of the two categories (mortality or growth inhibition)
Method: Maize sprouts placed onto an agar layer in 24-well microtiter plates were treated with aqueous test solutions prepared from 10,000 ppm DMSO stock solutions by spraying. After drying, the plates were infested with L2 larvae (6 to 10 per well). The samples were assessed for mortality and growth inhibition in comparison to untreated samples 4 days after infestation.

[5] = system: Plutella xylostella (Diamond Back Moth); test: Example B7: Plutella xylostella, artificial diet, L2 larvae; conditions: 120 h, read-out: effect in at least one of the two categories (mortality or growth inhibition); for percent effect (mortality or growth inhibition) at 200 ppm: application rate of 200 ppm, L2 larvae, 5 days after infestation
Method: 24-well microtiter plates with artificial diet were treated with aqueous test solutions prepared from 10,000 ppm DMSO stock solutions by pipetting. After drying, the plates were infested with L2 larvae (10 to 15 per well). The samples were assessed for mortality and growth inhibition in comparison to untreated samples 5 days after infestation.

[6] = system: Spodoptera littoralis (Egyptian Cotton Leaf Worm); test: Example B9: Spodoptera littoralis, cotton leaf discs (mortality, anti-feeding, growth inhibition); conditions: foliar, 72 h, read-out: control (mortality, anti-feeding effect or growth inhibition)
Method: Cotton leaf discs were placed onto agar in 24-well microtiter plates and sprayed with aqueous test solutions prepared from 10,000 ppm DMSO stock solutions. After drying the leaf discs were infested with five L1 larvae. The samples were assessed for mortality, anti-feeding effect, and growth inhibition in comparison to untreated samples 3 days after infestation. Control of Spodoptera littoralis by a test sample is given when at least one of the categories mortality, anti-feedant effect, and growth inhibition is higher than the untreated sample.

Melodoigyne incognita = test: Example B14: Melodoigyne incognita juvenile mobility, in vitro profiling in 96 well plate; conditions: read-out: control (juvenile mobility)
Method: Test solutions are prepared from 10,000 ppm DMSO stock solutions with a TECAN robot to achieve 20 μL of 1000, 200, 100, 50, 25 and 12.5 ppm. For each concentration three replicates are produced. Per well, 80 μL nematode solution is added containing 100 to 150 freshly harvested second stage juveniles of Melodoigyne incognita. The plates are covered and stored at room temperature in the dark and incubated for 24 h. Mobility of the exposed juveniles in a treated well is measured using an imaging tool and compared to an average of 12 untreated replicates.

[7] = Myzus persicae, application rate of 200 ppm, mixed ages, 6 days after infestation, read-out: mortality
[8] = Euschistus heros, application rate of 200 ppm, N2 nymphs, 5 days after infestation
[9] = Myzus persicae, test rate of 24 ppm, mixed ages, 6 days after placing seedlings into test solutions, read-out: mortality
[10] = application rate of 200 ppm, L1 larvae, 3 days after infestation
[11] = 200 ppm, after 24 h, second stage juveniles

SMILES | mortality at 200 ppm [1, 7] [%] | percent effect (mortality or growth inhibition) at 200 ppm [2, 8] [%] | mortality at 24 ppm [3, 9] [%] | percent effect (mortality or growth inhibition) at 200 ppm [4] [%] | percent effect (mortality or growth inhibition) at 200 ppm [5] [%] | percent control (mortality, anti-feedant effect or growth inhibition) at 200 ppm [6, 10] [%] | pest or weed control at 200 ppm (Melodoigyne incognita; [11]) [%] | mortality at 12.5 ppm ([1]; Myzus persicae) [%] | mortality at 200 ppm ([1]; Myzus persicae) [%] | mortality at 50 ppm ([2]; Euschistus heros) [%] | percent effect (mortality or growth inhibition) at 200 ppm ([2]; Euschistus heros) [%] | mortality at 1.5 ppm ([3]; Myzus persicae) [%] | mortality at 24 ppm ([3]; Myzus persicae) [%] | percent control (mortality or growth inhibition) at 200 ppm [5] [%] | percent control (mortality, anti-feedant effect or growth inhibition) at 200 ppm [6] [%] | pest or weed control at 200 ppm (Melodoigyne incognita; 24 h) [%] | mortality at 12.5 ppm ([1]; Concentration 12.5 ppm, Myzus persicae (feeding/contact, Example B5), read-out: Mortality (%)) [%] | mortality at 50 ppm ([2]; Concentration 50 ppm, Euschistus heros (Example B3), read-out: Mortality (%)) [%] | mortality at 1.5 ppm ([3]; Concentration 1.5 ppm, Myzus persicae (systemic, Example B6), read-out: Mortality (%)) [%]
CCS(=O)(=O)c1cc(N(C)C(=O)C(F)(F)F)cnc1-c1nc2cc(C(F)(F)F)ncc2n1C [P11, N-[5-ethylsulfonyl-6-[3-methyl-6-(trifluoromethyl)imidazo[4,5-c]pyridin-2-yl]-3-pyridyl]-2,2,2-trifluoro-N-methyl-acetamide] | ≥ 80 | ≥ 80 | ≥ 80 | ≥ 80 | ≥ 80 | ≥ 80 | ≥ 80 |  |  |  |  |  |  |  |  |  |  |  | 
CCS(=O)(=O)c1cc(N2CCCC2=O)cnc1-c1nc2cc(C(F)(F)F)ncc2n1C [P5, 1-[5-ethylsulfonyl-6-[3-methyl-6-(trifluoromethyl)imidazo[4,5-c]pyridin-2-yl]-3-pyridyl]pyrrolidin-2-one] |  |  |  |  |  |  |  | 0 | ≥ 80 | 100 | ≥ 80 | 80 | ≥ 80 | ≥ 80 | ≥ 80 | ≥ 80 |  |  | 
CCS(=O)(=O)c1cc(N(C)C(=O)COC)cnc1-c1nc2cc(C(F)(F)F)ncc2n1C [P12, N-[5-ethylsulfonyl-6-[3-methyl-6-(trifluoromethyl)imidazo[4,5-c]pyridin-2-yl]-3-pyridyl]-2-methoxy-N-methyl-acetamide] | ≥ 80 | ≥ 80 | ≥ 80 | ≥ 80 | ≥ 80 | ≥ 80 | ≥ 80 |  |  |  |  |  |  |  |  |  |  |  | 
CCS(=O)(=O)c1cc(N(C(C)=O)C2CC2)cnc1-c1nc2cc(C(F)(F)F)ncc2n1C [P10, N-cyclopropyl-N-[5-ethylsulfonyl-6-[3-methyl-6-(trifluoromethyl)imidazo[4,5-c]pyridin-2-yl]-3-pyridyl]acetamide] | ≥ 80 | ≥ 80 | ≥ 80 | ≥ 80 | ≥ 80 | ≥ 80 | ≥ 80 |  |  |  |  |  |  |  |  |  |  |  | 
CCS(=O)(=O)c1cc(N2CCN(OC)C2=O)cnc1-c1nc2cc(C(F)(F)F)ncc2n1C [P35, 1-[5-ethylsulfonyl-6-[3-methyl-6-(trifluoromethyl)imidazo[4,5-c]pyridin-2-yl]-3-pyridyl]-3-methoxy-imidazolidin-2-one] | ≥ 80 | ≥ 80 | ≥ 80 |  |  | ≥ 80 |  |  |  |  |  |  |  |  |  |  |  |  | 
CCS(=O)(=O)c1cc(N(OC)C(=O)C2CC2)cnc1-c1nc2cc(C(F)(F)F)ncc2n1C [P24, N-[5-ethylsulfonyl-6-[3-methyl-6-(trifluoromethyl)imidazo[4,5-c]pyridin-2-yl]-3-pyridyl]-N-methoxy-cyclopropanecarboxamide] |  | ≥ 80 |  | ≥ 80 | ≥ 80 | ≥ 80 | ≥ 80 |  |  |  |  |  |  |  |  |  |  |  | 
CCS(=O)(=O)c1cc(N2CCOC2=O)cnc1-c1nc2cc(C(F)(F)F)ncc2n1C [P34, 3-[5-ethylsulfonyl-6-[3-methyl-6-(trifluoromethyl)imidazo[4,5-c]pyridin-2-yl]-3-pyridyl]oxazolidin-2-one] | ≥ 80 | ≥ 80 | ≥ 80 |  | ≥ 80 | ≥ 80 | ≥ 80 |  |  |  |  |  |  |  |  |  | 100 | 80 | 100
CCC(=O)N(OC)c1cnc(-c2nc3cc(C(F)(F)F)ncc3n2C)c(S(=O)(=O)CC)c1 [P29, N-[5-ethylsulfonyl-6-[3-methyl-6-(trifluoromethyl)imidazo[4,5-c]pyridin-2-yl]-3-pyridyl]-N-methoxy-propanamide] | ≥ 80 | ≥ 80 | ≥ 80 | ≥ 80 | ≥ 80 | ≥ 80 | ≥ 80 |  |  |  |  |  |  |  |  |  |  |  | 
CCS(=O)(=O)c1cc(N(C)C(=O)CS(C)(=O)=O)cnc1-c1nc2cc(C(F)(F)F)ncc2n1C [P17, N-[5-ethylsulfonyl-6-[3-methyl-6-(trifluoromethyl)imidazo[4,5-c]pyridin-2-yl]-3-pyridyl]-N-methyl-2-methylsulfonyl-acetamide] | ≥ 80 | ≥ 80 | ≥ 80 | ≥ 80 |  | ≥ 80 | ≥ 80 |  |  |  |  |  |  |  |  |  |  |  | 
CCS(=O)(=O)c1cc(N(C)C(=O)CCl)cnc1-c1nc2cc(C(F)(F)F)ncc2n1C [P22, 2-chloro-N-[5-ethylsulfonyl-6-[3-methyl-6-(trifluoromethyl)imidazo[4,5-c]pyridin-2-yl]-3-pyridyl]-N-methyl-acetamide] | ≥ 80 | ≥ 80 | ≥ 80 |  |  | ≥ 80 | ≥ 80 |  |  |  |  |  |  |  |  |  |  |  | 
CCS(=O)(=O)c1cc(N(OC)C(C)=O)cnc1-c1nc2cc(C(F)(F)F)ncc2n1C [P30, N-[5-ethylsulfonyl-6-[3-methyl-6-(trifluoromethyl)imidazo[4,5-c]pyridin-2-yl]-3-pyridyl]-N-methoxy-acetamide] | ≥ 80 | ≥ 80 | ≥ 80 | ≥ 80 | ≥ 80 | ≥ 80 | ≥ 80 |  |  |  |  |  |  |  |  |  |  |  | 
CCC(=O)N(c1cnc(-c2nc3cc(C(F)(F)F)ncc3n2C)c(S(=O)(=O)CC)c1)C1CC1 [P40, N-cyclopropyl-N-[5-ethylsulfonyl-6-[3-methyl-6-(trifluoromethyl)imidazo[4,5-c]pyridin-2-yl]-3-pyridyl]propanamide] | ≥ 80 | ≥ 80 | ≥ 80 | ≥ 80 | ≥ 80 | ≥ 80 | ≥ 80 |  |  |  |  |  |  |  |  |  |  |  | 
